Test results published in patent publication US11672786B2, “Methods of treating diseases associated with repeat instability” (The Hospital for Sick Children, priority 2016, dated 2023).

Test system: CASK, ATXN8, and Mfd15 loci in HT1080-(CAG)850 cells
Assay: repeat-tract lengths of non-expanded loci in HT1080-(CAG)850 cells
Assay type: cell-based, human
Details: 30 days incubation with or without NA
Excerpt: FIG. 5 are results from experiments showing that NA induces CAG contractions in HT1080-(CAG)850 cells, independent of proliferation, dependent upon rCAG transcription. […] Panel B of FIG. 5 are histograms showing repeat length distributions in HT1080-(CAG)850 cells. Frequency distribution of unstable alleles is shown by gray bars. Frequency of stable alleles is shown by black bars. To facilitate comparisons, a dashed line indicates the unchanged CAG size. Allele lengths are grouped in bins spanning 50 repeats. […] More than 50 alleles were sized for each group. P-value was calculated by chi-square test (Table 2). […] P-value was calculated by Student's t-test. […] Repeat length distributions and average repeat size changes are shown. […] Quantitative reverse transcription (RT)-PCR was performed using TaqMan Gene Expression assays. […]
Genomic DNA was extracted from HT1080-(CAG)850 clones and HD primary fibroblasts using the Gentra Puregene Cell Kit (Qiagen, Valencia, Calif.). […] At least 50 alleles were analyzed for each of the three experiments (more than 150 alleles for a total study). […] For the histograms in FIGS. 4D, 4E, 10, 11, 5B, 5D, 5E, 14 and 15B, the Y-axis, “% of repeat population” was calculated by determining the proportion of >50 individual small-pool PCR reactions across the CAG repeat tract, that harbored a certain size of repeat product with a certain length. […]

## naphthyridine-azaquinolone
  length variation at CASK, ATXN8, and Mfd15 loci: Length variation was not observed
